Experimental data published in ChEMBL document CHEMBL1141877 (J Med Chem, 2005).

Experiments:
Butyrylcholinesterase = Butyrylcholinesterase (Rattus norvegicus, UniProt Q9JKC1); test: Inhibitory concentration against butyrylcholinesterase of rat serum
Acetylcholinesterase = biological target: T1, Acetylcholinesterase (Rattus norvegicus, UniProt P37136); test: Inhibitory concentration against acetylcholinesterase of rat cortex homogenate
T1 sequence (P37136 whole entry): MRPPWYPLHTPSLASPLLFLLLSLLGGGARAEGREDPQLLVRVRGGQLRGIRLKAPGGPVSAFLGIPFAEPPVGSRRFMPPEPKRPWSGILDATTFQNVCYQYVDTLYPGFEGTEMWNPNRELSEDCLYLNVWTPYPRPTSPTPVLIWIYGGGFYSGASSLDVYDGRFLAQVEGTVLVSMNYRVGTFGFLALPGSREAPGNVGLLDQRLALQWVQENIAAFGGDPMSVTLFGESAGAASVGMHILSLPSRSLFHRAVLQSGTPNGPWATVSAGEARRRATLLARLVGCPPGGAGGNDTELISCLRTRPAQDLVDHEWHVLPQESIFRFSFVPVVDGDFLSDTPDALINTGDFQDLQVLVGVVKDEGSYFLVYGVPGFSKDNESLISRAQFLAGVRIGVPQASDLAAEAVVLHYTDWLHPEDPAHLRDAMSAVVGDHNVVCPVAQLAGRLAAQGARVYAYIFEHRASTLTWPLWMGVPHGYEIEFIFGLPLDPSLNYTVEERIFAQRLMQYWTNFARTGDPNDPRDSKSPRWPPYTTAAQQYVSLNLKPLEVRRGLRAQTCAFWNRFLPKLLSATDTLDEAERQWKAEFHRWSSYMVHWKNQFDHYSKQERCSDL

Butyrylcholinesterase, sequence (Q9JKC1 whole entry): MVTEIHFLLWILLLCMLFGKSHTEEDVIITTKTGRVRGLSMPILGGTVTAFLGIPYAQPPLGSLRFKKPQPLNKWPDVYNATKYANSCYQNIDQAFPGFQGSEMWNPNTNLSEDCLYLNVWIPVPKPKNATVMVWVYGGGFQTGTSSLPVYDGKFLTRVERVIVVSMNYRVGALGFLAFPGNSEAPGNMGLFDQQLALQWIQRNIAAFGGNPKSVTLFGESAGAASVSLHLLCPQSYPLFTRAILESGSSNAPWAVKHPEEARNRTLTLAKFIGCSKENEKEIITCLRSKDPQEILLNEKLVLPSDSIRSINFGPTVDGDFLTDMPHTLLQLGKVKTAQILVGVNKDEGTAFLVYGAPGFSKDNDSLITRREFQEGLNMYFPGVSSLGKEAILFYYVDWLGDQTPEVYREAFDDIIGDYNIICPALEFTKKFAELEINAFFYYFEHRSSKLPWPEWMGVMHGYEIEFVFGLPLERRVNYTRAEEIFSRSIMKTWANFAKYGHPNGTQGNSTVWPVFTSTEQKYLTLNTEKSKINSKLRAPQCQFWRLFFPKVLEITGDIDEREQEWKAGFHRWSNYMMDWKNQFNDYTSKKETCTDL

Structure (SMILES)	IC50 (Butyrylcholinesterase)	IC50 (Acetylcholinesterase)
CC1=CC2Cc3[nH]c(=O)ccc3[C@@]3(C1)[C@@H]2CCCN3C(=O)CCN(C)CCCCCCN(C)CCC(=O)N1CCC[C@@H]2C3C=C(C)C[C@]21c1ccc(=O)[nH]c1C3	67.9 µM	0.0359 µM
CC1=CC2Cc3[nH]c(=O)ccc3[C@@]3(C1)[C@@H]2CCCN3C(=O)CN(C)CCCCCCCCN(C)CC(=O)N1CCC[C@@H]2C3C=C(C)C[C@]21c1ccc(=O)[nH]c1C3	65.4 µM	0.0508 µM
CC1=CC2Cc3[nH]c(=O)ccc3[C@@]3(C1)[C@@H]2CCCN3C(=O)CN(C)CCN(C)CC(=O)N1CCC[C@@H]2C3C=C(C)C[C@]21c1ccc(=O)[nH]c1C3 [BIS(8)-HUPERZINE B]	–	1.02 µM
CC1=CC2Cc3[nH]c(=O)ccc3[C@@]3(C1)[C@@H]2CCCN3C(=O)CN(C)CCCN(C)CC(=O)N1CCC[C@@H]2C3C=C(C)C[C@]21c1ccc(=O)[nH]c1C3 [BIS(9)-HUPERZINE B]	60 µM	0.471 µM
CC1=CC2Cc3[nH]c(=O)ccc3[C@@]3(C1)[C@@H]2CCCN3C(=O)CN(C)CCCCCCN(C)CC(=O)N1CCC[C@@H]2C3C=C(C)C[C@]21c1ccc(=O)[nH]c1C3 [BIS(12)-HUPERZINE B]	64.5 µM	0.0762 µM
CC1=CC2Cc3[nH]c(=O)ccc3[C@@]3(C1)[C@@H]2CCCN3C(=O)CCN(C)CCCCCCCCN(C)CCC(=O)N1CCC[C@@H]2C3C=C(C)C[C@]21c1ccc(=O)[nH]c1C3 [BIS(16)-HUPERZINE B]	63 µM	0.0185 µM
CC1=CC2Cc3[nH]c(=O)ccc3[C@@]3(C1)[C@@H]2CCCN3C(=O)CCN(C)CCCCCCCCCCN(C)CCC(=O)N1CCC[C@@H]2C3C=C(C)C[C@]21c1ccc(=O)[nH]c1C3 [BIS(18)-HUPERZINE B]	54.3 µM	0.00493 µM
CC1=CC2Cc3[nH]c(=O)ccc3[C@@]3(C1)[C@@H]2CCCN3C(=O)CCN(C)CCCCCCCCCCCCN(C)CCC(=O)N1CCC[C@@H]2C3C=C(C)C[C@]21c1ccc(=O)[nH]c1C3 [BIS(20)-HUPERZINE B]	88.4 µM	0.0252 µM
CC1=C[C@H]2Cc3[nH]c(=O)ccc3[C@]3(C1)NCCC[C@H]23 [HUPERZINE B]	227 µM	19.3 µM
